The results in this text go back to BindingDB's records for doi:10.1124/jpet.105.097303 (Temple University, 2006).

As a reminder, the Ki is the dissociation constant of the complex between target and ligand, obtained from inhibition or displacement. Low readings indicate a stronger hold on the target, high ones a looser hold on the target.

Structures are written as SMILES.

The target in assay [1] is cAMP-dependent protein kinase catalytic subunit beta (Rattus norvegicus, UniProt P68182).
Assay [2] has as its target Rho-associated protein kinase 2 (Rattus norvegicus, UniProt Q62868).
Assay [3] concerns the target T1, cGMP-dependent protein kinase 1 (Homo sapiens, UniProt Q13976).
T1 sequence (Q13976 whole entry): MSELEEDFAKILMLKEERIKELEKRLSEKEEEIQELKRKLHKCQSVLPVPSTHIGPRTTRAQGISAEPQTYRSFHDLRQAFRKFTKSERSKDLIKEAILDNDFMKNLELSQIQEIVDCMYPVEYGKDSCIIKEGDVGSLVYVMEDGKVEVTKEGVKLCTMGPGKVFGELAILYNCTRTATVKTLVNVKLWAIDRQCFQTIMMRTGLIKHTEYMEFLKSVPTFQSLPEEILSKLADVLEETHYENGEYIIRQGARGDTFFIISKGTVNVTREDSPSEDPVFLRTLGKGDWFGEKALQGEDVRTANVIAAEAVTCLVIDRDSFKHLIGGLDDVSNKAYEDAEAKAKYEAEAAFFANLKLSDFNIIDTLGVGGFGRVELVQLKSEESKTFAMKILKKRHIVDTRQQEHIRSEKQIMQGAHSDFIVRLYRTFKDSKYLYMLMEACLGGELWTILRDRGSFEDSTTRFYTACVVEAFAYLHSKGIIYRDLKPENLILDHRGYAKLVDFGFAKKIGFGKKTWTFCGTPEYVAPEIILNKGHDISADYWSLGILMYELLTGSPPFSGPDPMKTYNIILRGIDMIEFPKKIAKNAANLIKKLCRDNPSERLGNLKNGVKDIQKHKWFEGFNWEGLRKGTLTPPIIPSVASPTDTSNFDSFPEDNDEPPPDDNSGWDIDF

Assay [4] concerns the target Protein kinase C alpha type (Rattus norvegicus, UniProt P05696).
For assay [5], the target named is T2, 1-phosphatidylinositol 4,5-bisphosphate phosphodiesterase beta-1 (Rattus norvegicus, UniProt P10687).
T2 sequence (P10687 whole entry): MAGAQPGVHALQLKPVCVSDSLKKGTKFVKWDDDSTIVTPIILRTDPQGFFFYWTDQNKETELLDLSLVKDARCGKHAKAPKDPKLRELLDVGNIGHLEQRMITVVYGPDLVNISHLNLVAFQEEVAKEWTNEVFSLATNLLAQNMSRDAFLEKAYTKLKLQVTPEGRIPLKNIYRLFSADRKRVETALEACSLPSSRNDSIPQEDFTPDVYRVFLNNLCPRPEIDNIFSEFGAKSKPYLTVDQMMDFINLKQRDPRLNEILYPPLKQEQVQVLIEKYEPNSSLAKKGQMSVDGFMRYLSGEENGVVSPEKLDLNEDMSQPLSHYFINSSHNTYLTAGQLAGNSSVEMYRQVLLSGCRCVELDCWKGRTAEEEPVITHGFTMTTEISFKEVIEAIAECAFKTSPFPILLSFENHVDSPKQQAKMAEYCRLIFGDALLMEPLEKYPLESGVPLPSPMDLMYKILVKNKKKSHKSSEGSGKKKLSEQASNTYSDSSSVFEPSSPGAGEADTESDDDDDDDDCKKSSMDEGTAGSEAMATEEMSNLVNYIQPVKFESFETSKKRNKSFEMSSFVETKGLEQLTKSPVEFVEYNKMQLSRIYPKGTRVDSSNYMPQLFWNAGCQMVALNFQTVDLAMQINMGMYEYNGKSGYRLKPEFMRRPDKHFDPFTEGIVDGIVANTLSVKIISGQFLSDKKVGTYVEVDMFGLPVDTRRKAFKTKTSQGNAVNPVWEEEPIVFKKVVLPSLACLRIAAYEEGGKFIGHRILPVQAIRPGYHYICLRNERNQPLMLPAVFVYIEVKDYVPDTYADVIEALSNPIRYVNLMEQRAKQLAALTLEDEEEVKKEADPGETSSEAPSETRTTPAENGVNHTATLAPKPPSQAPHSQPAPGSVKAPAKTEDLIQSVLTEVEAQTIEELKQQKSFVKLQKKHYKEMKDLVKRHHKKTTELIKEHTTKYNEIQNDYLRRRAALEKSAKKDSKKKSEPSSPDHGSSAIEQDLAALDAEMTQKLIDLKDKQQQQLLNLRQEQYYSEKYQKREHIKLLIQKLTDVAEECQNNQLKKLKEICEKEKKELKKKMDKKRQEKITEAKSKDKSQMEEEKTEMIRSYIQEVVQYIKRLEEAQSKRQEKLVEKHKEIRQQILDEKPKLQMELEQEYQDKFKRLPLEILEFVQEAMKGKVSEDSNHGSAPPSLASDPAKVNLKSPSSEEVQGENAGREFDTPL

Assay [6] concerns the target T3, 1-phosphatidylinositol 4,5-bisphosphate phosphodiesterase delta-4 (Rattus norvegicus, UniProt Q62711).
T3 sequence (Q62711 whole entry): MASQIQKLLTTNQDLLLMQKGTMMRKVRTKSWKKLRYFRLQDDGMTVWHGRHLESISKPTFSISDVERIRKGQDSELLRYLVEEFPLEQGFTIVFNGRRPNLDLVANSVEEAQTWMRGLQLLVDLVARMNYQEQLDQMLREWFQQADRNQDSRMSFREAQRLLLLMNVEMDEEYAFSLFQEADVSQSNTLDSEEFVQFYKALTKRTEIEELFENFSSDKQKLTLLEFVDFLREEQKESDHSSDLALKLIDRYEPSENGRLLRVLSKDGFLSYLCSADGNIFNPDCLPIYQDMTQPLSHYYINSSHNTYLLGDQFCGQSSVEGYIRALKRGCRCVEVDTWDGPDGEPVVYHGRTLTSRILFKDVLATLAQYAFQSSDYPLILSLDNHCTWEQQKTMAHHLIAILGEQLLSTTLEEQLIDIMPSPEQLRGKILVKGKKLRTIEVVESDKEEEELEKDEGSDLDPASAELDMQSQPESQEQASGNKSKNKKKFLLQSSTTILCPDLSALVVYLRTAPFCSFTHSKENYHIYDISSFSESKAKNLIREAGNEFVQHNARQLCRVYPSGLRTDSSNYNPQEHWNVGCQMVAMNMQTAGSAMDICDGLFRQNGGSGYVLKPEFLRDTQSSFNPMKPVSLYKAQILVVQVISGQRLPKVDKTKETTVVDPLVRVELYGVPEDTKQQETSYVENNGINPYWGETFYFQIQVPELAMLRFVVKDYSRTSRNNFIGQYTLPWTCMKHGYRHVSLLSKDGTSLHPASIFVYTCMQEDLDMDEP

Chain of Rho-associated protein kinase 2 (Q62868 whole entry): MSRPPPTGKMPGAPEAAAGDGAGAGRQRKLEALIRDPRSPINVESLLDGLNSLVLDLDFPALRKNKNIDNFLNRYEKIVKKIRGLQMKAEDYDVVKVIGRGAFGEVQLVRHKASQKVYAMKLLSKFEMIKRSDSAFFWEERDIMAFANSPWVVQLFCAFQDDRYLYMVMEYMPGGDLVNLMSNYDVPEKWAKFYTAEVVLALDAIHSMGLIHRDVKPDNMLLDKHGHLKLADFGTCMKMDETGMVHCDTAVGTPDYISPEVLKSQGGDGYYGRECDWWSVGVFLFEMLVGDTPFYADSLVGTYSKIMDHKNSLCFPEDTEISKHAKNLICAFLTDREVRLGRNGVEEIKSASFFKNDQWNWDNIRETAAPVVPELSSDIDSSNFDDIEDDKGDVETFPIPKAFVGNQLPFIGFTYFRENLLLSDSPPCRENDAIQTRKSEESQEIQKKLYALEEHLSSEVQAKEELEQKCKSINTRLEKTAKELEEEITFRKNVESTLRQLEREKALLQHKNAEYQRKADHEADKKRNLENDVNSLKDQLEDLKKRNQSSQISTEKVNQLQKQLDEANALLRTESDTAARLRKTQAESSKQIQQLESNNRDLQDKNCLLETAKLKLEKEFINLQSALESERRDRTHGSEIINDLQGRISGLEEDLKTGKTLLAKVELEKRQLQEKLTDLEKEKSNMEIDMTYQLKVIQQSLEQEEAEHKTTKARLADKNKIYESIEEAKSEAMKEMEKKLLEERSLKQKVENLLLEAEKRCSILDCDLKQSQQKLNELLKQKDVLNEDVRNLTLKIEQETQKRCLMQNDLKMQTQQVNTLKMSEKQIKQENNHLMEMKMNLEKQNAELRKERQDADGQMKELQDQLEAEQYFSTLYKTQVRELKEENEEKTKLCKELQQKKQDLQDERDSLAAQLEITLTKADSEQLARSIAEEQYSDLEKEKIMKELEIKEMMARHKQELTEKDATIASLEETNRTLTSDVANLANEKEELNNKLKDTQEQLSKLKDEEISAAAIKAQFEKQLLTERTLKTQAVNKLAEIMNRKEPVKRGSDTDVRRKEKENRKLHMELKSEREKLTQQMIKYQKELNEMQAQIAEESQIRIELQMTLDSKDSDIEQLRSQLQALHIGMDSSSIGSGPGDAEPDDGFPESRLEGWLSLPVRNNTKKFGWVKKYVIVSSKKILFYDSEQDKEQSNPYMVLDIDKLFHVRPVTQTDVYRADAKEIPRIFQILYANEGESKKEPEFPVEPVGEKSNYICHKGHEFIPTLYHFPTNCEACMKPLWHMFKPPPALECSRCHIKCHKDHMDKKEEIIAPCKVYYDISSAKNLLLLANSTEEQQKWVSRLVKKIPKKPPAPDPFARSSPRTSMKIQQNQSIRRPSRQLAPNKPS

As to `O=S(=O)(NCCNC/C=C/c1ccc(Br)cc1)c1cccc2cnccc12`, the results for the inhibition constant (Ki) in assay [1], in assay [2] and in assay [3] were 50 nM, 270 nM and 500 nM, respectively.

In turn, `COc1ccc2c(c[n+](C)c3c4cc5c(cc4ccc23)OCO5)c1OC` yielded a Ki in assay [4] of 660 nM.

Regarding `CCCCCCCCCCCCCCCCCCOC[C@H](COP(=O)([O-])OCC[N+](C)(C)C)OC` [CAS_77286-66-9], the affinity in assay [5] corresponds to a Ki of 5000 nM.

For the compound `NC[C@@H]1O[C@H](O[C@H]2[C@@H](O)[C@H](O[C@@H]3[C@@H](O)[C@H](N)C[C@H](N)[C@H]3O[C@H]3O[C@H](CN)[C@@H](O)[C@H](O)[C@H]3N)O[C@@H]2CO)[C@H](N)[C@@H](O)[C@@H]1O` [KDR Kinase Inhibitor, 3], the Ki in assay [5] and in assay [6] was 5000 nM in each case.

In the case of `C[C@@H](N)[C@H]1CC[C@H](C(=O)Nc2ccncc2)CC1` [Y-27632], the inhibition constant Ki came out at 25000 nM in assay [1], 100 nM in assay [2] and 26000 nM in assay [4].
